Experimental data from ChEMBL document CHEMBL3352650, “Investigation of podophyllotoxin esters as potential anticancer agents: synthesis, biological studies and tubulin inhibition properties” (Eur J Med Chem, 2015).
Activity calls are given as the source filed them. No cut-off for these calls is given here.

What follows are compounds tested on HeLa (assay: Cytotoxicity against human HeLa cells after 48 hrs by MTT assay). Conditions: not given.
Format: functional, cell-based

SMILES	IC50 [µM]
COc1ccc(/C(=C\c2cc(OC)c(OC)c(OC)c2)C(=O)O[C@H]2c3cc4c(cc3[C@@H](c3cc(OC)c(OC)c(OC)c3)[C@H]3C(=O)OC[C@@H]32)OCO4)cc1OC	11.8
COc1cc([C@@H]2c3cc4c(cc3[C@H](OC(=O)c3ccc([N+](=O)[O-])cc3)[C@H]3COC(=O)[C@H]23)OCO4)cc(OC)c1OC	2.06
COc1cccc(/C(=C\c2cc(OC)c(OC)c(OC)c2)C(=O)O[C@H]2c3cc4c(cc3[C@@H](c3cc(OC)c(OC)c(OC)c3)[C@H]3C(=O)OC[C@@H]32)OCO4)c1	14.1
COc1ccc(C(=O)O[C@H]2c3cc4c(cc3[C@@H](c3cc(OC)c(OC)c(OC)c3)[C@H]3C(=O)OC[C@@H]32)OCO4)c([N+](=O)[O-])c1	17.6
COc1ccc(/C(=C\c2ccc(OC)c(OC)c2)C(=O)O[C@H]2c3cc4c(cc3[C@@H](c3cc(OC)c(OC)c(OC)c3)[C@H]3C(=O)OC[C@@H]32)OCO4)cc1	15.5

The compounds below were run against T1, Tubulin (Homo sapiens) (UniProt P68371+Q9H4B7+P0DPH7+P68366+Q13509+Q71U36+P04350+Q3ZCM7+P07437+P68363+Q9BQE3+Q6PEY2+Q13885+Q9BVA1+Q9BUF5) (assay: Inhibition of tubulin polymerization (unknown origin) at 5 uM measured every min for 1 hr by fluorescence-based assay). Conditions: not given.
Format: protein-complex assay
Parameters: scale not given: the % may be the effect or the level left

SMILES	Activity [%]
COc1cc([C@@H]2c3cc4c(cc3[C@H](OC(=O)c3ccc([N+](=O)[O-])cc3)[C@H]3COC(=O)[C@H]23)OCO4)cc(OC)c1OC	64

What follows are compounds tested against T1, Tubulin (Homo sapiens) (assay: Inhibition of tubulin polymerization in human DU145 cells assessed as reduction of Akt phosphorylation at Ser473 at 2 to 5 uM after 48 hrs by Western blotting analysis). Conditions: DU-145.
Format: cell-based

SMILES	Activity
COc1cc([C@@H]2c3cc4c(cc3[C@H](OC(=O)c3ccc([N+](=O)[O-])cc3)[C@H]3COC(=O)[C@H]23)OCO4)cc(OC)c1OC	Dose-dependent effect

What follows are compounds tested on DU-145 (assay: Cytotoxicity against human DU145 cells after 48 hrs by MTT assay). Conditions: DU-145, 48 h.
Format: functional, cell-based

SMILES	IC50 [µM]
COc1ccc(/C(=C\c2cc(OC)c(OC)c(OC)c2)C(=O)O[C@H]2c3cc4c(cc3[C@@H](c3cc(OC)c(OC)c(OC)c3)[C@H]3C(=O)OC[C@@H]32)OCO4)cc1OC	37.8
COc1cc([C@@H]2c3cc4c(cc3[C@H](OC(=O)c3ccc([N+](=O)[O-])cc3)[C@H]3COC(=O)[C@H]23)OCO4)cc(OC)c1OC	1.1
COc1cccc(/C(=C\c2cc(OC)c(OC)c(OC)c2)C(=O)O[C@H]2c3cc4c(cc3[C@@H](c3cc(OC)c(OC)c(OC)c3)[C@H]3C(=O)OC[C@@H]32)OCO4)c1	18.4
COc1ccc(C(=O)O[C@H]2c3cc4c(cc3[C@@H](c3cc(OC)c(OC)c(OC)c3)[C@H]3C(=O)OC[C@@H]32)OCO4)c([N+](=O)[O-])c1	14.4
COc1ccc(/C(=C\c2ccc(OC)c(OC)c2)C(=O)O[C@H]2c3cc4c(cc3[C@@H](c3cc(OC)c(OC)c(OC)c3)[C@H]3C(=O)OC[C@@H]32)OCO4)cc1	8.32

These compounds were tested on MCF7 (assay: Cytotoxicity against human MCF7 cells after 48 hrs by MTT assay). Conditions: MCF7, 48 h.
Format: functional, cell-based

SMILES	IC50 [µM]
COc1ccc(/C(=C\c2cc(OC)c(OC)c(OC)c2)C(=O)O[C@H]2c3cc4c(cc3[C@@H](c3cc(OC)c(OC)c(OC)c3)[C@H]3C(=O)OC[C@@H]32)OCO4)cc1OC	22.9
COc1cc([C@@H]2c3cc4c(cc3[C@H](OC(=O)c3ccc([N+](=O)[O-])cc3)[C@H]3COC(=O)[C@H]23)OCO4)cc(OC)c1OC	1.56
COc1cccc(/C(=C\c2cc(OC)c(OC)c(OC)c2)C(=O)O[C@H]2c3cc4c(cc3[C@@H](c3cc(OC)c(OC)c(OC)c3)[C@H]3C(=O)OC[C@@H]32)OCO4)c1	20.1
COc1ccc(C(=O)O[C@H]2c3cc4c(cc3[C@@H](c3cc(OC)c(OC)c(OC)c3)[C@H]3C(=O)OC[C@@H]32)OCO4)c([N+](=O)[O-])c1	15.3
COc1ccc(/C(=C\c2ccc(OC)c(OC)c2)C(=O)O[C@H]2c3cc4c(cc3[C@@H](c3cc(OC)c(OC)c(OC)c3)[C@H]3C(=O)OC[C@@H]32)OCO4)cc1	17.4

Each compound was assayed on A549 (assay: Cytotoxicity against human A549 cells after 48 hrs by MTT assay). Conditions: A549, 48 h.
Format: functional, cell-based

SMILES	IC50 [µM]
COc1ccc(/C(=C\c2cc(OC)c(OC)c(OC)c2)C(=O)O[C@H]2c3cc4c(cc3[C@@H](c3cc(OC)c(OC)c(OC)c3)[C@H]3C(=O)OC[C@@H]32)OCO4)cc1OC	10.4
COc1cc([C@@H]2c3cc4c(cc3[C@H](OC(=O)c3ccc([N+](=O)[O-])cc3)[C@H]3COC(=O)[C@H]23)OCO4)cc(OC)c1OC	0.74
COc1cccc(/C(=C\c2cc(OC)c(OC)c(OC)c2)C(=O)O[C@H]2c3cc4c(cc3[C@@H](c3cc(OC)c(OC)c(OC)c3)[C@H]3C(=O)OC[C@@H]32)OCO4)c1	24.9
COc1ccc(C(=O)O[C@H]2c3cc4c(cc3[C@@H](c3cc(OC)c(OC)c(OC)c3)[C@H]3C(=O)OC[C@@H]32)OCO4)c([N+](=O)[O-])c1	25.8
COc1ccc(/C(=C\c2ccc(OC)c(OC)c2)C(=O)O[C@H]2c3cc4c(cc3[C@@H](c3cc(OC)c(OC)c(OC)c3)[C@H]3C(=O)OC[C@@H]32)OCO4)cc1	18.2

The compounds below were run on DU-145 (assay: Cell cycle arrest in human DU145 cells assessed as accumulation at G0/G1 phase at 2 uM after 48 hrs by propidium iodide staining-based flow cytometric analysis (reference value: 78.96%)). Conditions: not given.
Format: functional

SMILES	Activity [%]
COc1cc([C@@H]2c3cc4c(cc3[C@H](OC(=O)c3ccc([N+](=O)[O-])cc3)[C@H]3COC(=O)[C@H]23)OCO4)cc(OC)c1OC	41.81

The compounds below were run on DU-145 (assay: Cell cycle arrest in human DU145 cells assessed as accumulation at G2/M phase at 2 uM after 48 hrs by propidium iodide staining-based flow cytometric analysis (reference value: 15%)). Conditions: not given.
Format: functional

SMILES	Activity [%]
COc1cc([C@@H]2c3cc4c(cc3[C@H](OC(=O)c3ccc([N+](=O)[O-])cc3)[C@H]3COC(=O)[C@H]23)OCO4)cc(OC)c1OC	13.23

Each compound was assayed on DU-145 (assay: Cell cycle arrest in human DU145 cells assessed as accumulation at sub-G1 phase at 2 uM after 48 hrs by propidium iodide staining-based flow cytometric analysis (reference value: 0.17%)). Conditions: not given.
Format: functional

SMILES	Activity [%]
COc1cc([C@@H]2c3cc4c(cc3[C@H](OC(=O)c3ccc([N+](=O)[O-])cc3)[C@H]3COC(=O)[C@H]23)OCO4)cc(OC)c1OC	40.72

The compounds below were run on DU-145 (assay: Cell cycle arrest in human DU145 cells assessed as accumulation at S phase at 2 uM after 48 hrs by propidium iodide staining-based flow cytometric analysis (reference value: 5.88%)). Conditions: not given.
Format: functional

SMILES	Activity [%]
COc1cc([C@@H]2c3cc4c(cc3[C@H](OC(=O)c3ccc([N+](=O)[O-])cc3)[C@H]3COC(=O)[C@H]23)OCO4)cc(OC)c1OC	4.24

What follows are compounds tested on HepG2 (assay: Cytotoxicity against human HepG2 cells after 48 hrs by MTT assay). Conditions: HepG2, 48 h.
Format: functional, cell-based

SMILES	IC50 [µM]
COc1ccc(/C(=C\c2cc(OC)c(OC)c(OC)c2)C(=O)O[C@H]2c3cc4c(cc3[C@@H](c3cc(OC)c(OC)c(OC)c3)[C@H]3C(=O)OC[C@@H]32)OCO4)cc1OC	23.7
COc1cc([C@@H]2c3cc4c(cc3[C@H](OC(=O)c3ccc([N+](=O)[O-])cc3)[C@H]3COC(=O)[C@H]23)OCO4)cc(OC)c1OC	8.83
COc1cccc(/C(=C\c2cc(OC)c(OC)c(OC)c2)C(=O)O[C@H]2c3cc4c(cc3[C@@H](c3cc(OC)c(OC)c(OC)c3)[C@H]3C(=O)OC[C@@H]32)OCO4)c1	27.3
COc1ccc(C(=O)O[C@H]2c3cc4c(cc3[C@@H](c3cc(OC)c(OC)c(OC)c3)[C@H]3C(=O)OC[C@@H]32)OCO4)c([N+](=O)[O-])c1	26.5
COc1ccc(/C(=C\c2ccc(OC)c(OC)c2)C(=O)O[C@H]2c3cc4c(cc3[C@@H](c3cc(OC)c(OC)c(OC)c3)[C@H]3C(=O)OC[C@@H]32)OCO4)cc1	51.2

What follows are compounds tested on DU-145 (assay: Cytotoxicity against human DU145 cells assessed as inhibition of colony formation at 5 uM after 3 days by microscopy). Conditions: not given.
Format: functional, cell-based

SMILES	inhibition
COc1cc([C@@H]2c3cc4c(cc3[C@H](OC(=O)c3ccc([N+](=O)[O-])cc3)[C@H]3COC(=O)[C@H]23)OCO4)cc(OC)c1OC	Active
